In PubChem BioAssay (NCI):
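A five-concentration, 48-hour dose response in 96-well plates underlies each endpoint, interpolated linearly between surrounding concentrations. GI50 = concentration required for 50% inhibition of growth. TGI is the concentration that stops growth completely.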

Key:
Assay in all cases: NCI-60 cell line screen, 48 h
LOX IMVI melanoma = test system: LOX IMVI melanoma
HL-60(TB) leukemia = test system: HL-60(TB) leukemia
OVCAR-3 ovarian = test system: OVCAR-3 ovarian
MCF7 breast = test system: MCF7 breast
HOP-62 NSCLC = test system: HOP-62 NSCLC
UACC-257 melanoma = test system: UACC-257 melanoma
MOLT-4 leukemia = test system: MOLT-4 leukemia
A498 renal = test system: A498 renal
SR leukemia = test system: SR leukemia
NCI-H460 lung = test system: NCI-H460 lung
SK-MEL-28 melanoma = test system: SK-MEL-28 melanoma
SN12C renal = test system: SN12C renal
RPMI-8226 leukemia = test system: RPMI-8226 leukemia
HT29 colon = test system: HT29 colon
UACC-62 melanoma = test system: UACC-62 melanoma
OVCAR-8 ovarian = test system: OVCAR-8 ovarian
NCI/ADR-RES ovarian = test system: NCI/ADR-RES ovarian
IGROV1 ovarian = test system: IGROV1 ovarian
RXF 393 renal = test system: RXF 393 renal
BT-549 breast = test system: BT-549 breast
SF-268 CNS = test system: SF-268 CNS
TK-10 renal = test system: TK-10 renal
SK-MEL-5 melanoma = test system: SK-MEL-5 melanoma
M14 melanoma = test system: M14 melanoma
NCI-H522 lung = test system: NCI-H522 lung
UO-31 renal = test system: UO-31 renal
SF-295 CNS = test system: SF-295 CNS
CCRF-CEM leukemia = test system: CCRF-CEM leukemia
SK-MEL-2 melanoma = test system: SK-MEL-2 melanoma
MALME-3M melanoma = test system: MALME-3M melanoma
T-47D breast = test system: T-47D breast
SNB-75 CNS = test system: SNB-75 CNS
ACHN renal = test system: ACHN renal
OVCAR-4 ovarian = test system: OVCAR-4 ovarian
SW-620 colon = test system: SW-620 colon
A549 NSCLC = test system: A549 NSCLC
NCI-H226 lung = test system: NCI-H226 lung
HCT-116 colon = test system: HCT-116 colon
SNB-19 CNS = test system: SNB-19 CNS
OVCAR-5 ovarian = test system: OVCAR-5 ovarian
COLO 205 colon = test system: COLO 205 colon
PC-3 prostate = test system: PC-3 prostate
HS 578T breast = test system: HS 578T breast
MDA-MB-435 = test system: MDA-MB-435
HCT-15 colon = test system: HCT-15 colon
K-562 leukemia = test system: K-562 leukemia
786-0 renal = test system: 786-0 renal
KM12 colon = test system: KM12 colon
CAKI-1 renal = test system: CAKI-1 renal
HCC-2998 colon = test system: HCC-2998 colon
NCI-H23 lung = test system: NCI-H23 lung
U251 CNS = test system: U251 CNS
MDA-MB-231 breast = test system: MDA-MB-231 breast
DU-145 prostate = test system: DU-145 prostate
SF-539 CNS = test system: SF-539 CNS
EKVX NSCLC = test system: EKVX NSCLC
HOP-92 NSCLC = test system: HOP-92 NSCLC
SK-OV-3 ovarian = test system: SK-OV-3 ovarian

Clc1coc2nc3ccccc3c(Nc3ccc4c(c3)OCO4)c12
GI50 (LOX IMVI melanoma): 2.01 µM
TGI (LOX IMVI melanoma): 13.6 µM
GI50 (HL-60(TB) leukemia): 0.808 µM
TGI (HL-60(TB) leukemia): 8.82 µM
GI50 (OVCAR-3 ovarian): 0.596 µM
TGI (OVCAR-3 ovarian): 2.46 µM
GI50 (MCF7 breast): 1.81 µM
TGI (MCF7 breast): > 100 µM
GI50 (HOP-62 NSCLC): 0.781 µM
TGI (HOP-62 NSCLC): 21.9 µM
GI50 (UACC-257 melanoma): 9.15 µM
TGI (UACC-257 melanoma): 26.1 µM
GI50 (MOLT-4 leukemia): 0.803 µM
TGI (MOLT-4 leukemia): 22 µM
GI50 (A498 renal): 1.14 µM
TGI (A498 renal): 5.82 µM
GI50 (SR leukemia): 0.201 µM
TGI (SR leukemia): 0.938 µM
GI50 (NCI-H460 lung): 1.98 µM
TGI (NCI-H460 lung): 14.5 µM
GI50 (SK-MEL-28 melanoma): 3.49 µM
TGI (SK-MEL-28 melanoma): > 71.4 µM
GI50 (SN12C renal): 5.95 µM
TGI (SN12C renal): > 100 µM
GI50 (RPMI-8226 leukemia): 1.45 µM
TGI (RPMI-8226 leukemia): 4.44 µM
GI50 (HT29 colon): 0.601 µM
TGI (HT29 colon): > 100 µM
GI50 (UACC-62 melanoma): 0.408 µM
TGI (UACC-62 melanoma): 5.32 µM
GI50 (OVCAR-8 ovarian): 2.33 µM
TGI (OVCAR-8 ovarian): 21.2 µM
GI50 (NCI/ADR-RES ovarian): 0.512 µM
TGI (NCI/ADR-RES ovarian): 8.01 µM
GI50 (IGROV1 ovarian): 5.95 µM
TGI (IGROV1 ovarian): > 100 µM
GI50 (RXF 393 renal): 1.51 µM
TGI (RXF 393 renal): 8.47 µM
GI50 (BT-549 breast): 5.19 µM
TGI (BT-549 breast): 27 µM
GI50 (SF-268 CNS): 5.6 µM
TGI (SF-268 CNS): 54 µM
GI50 (TK-10 renal): 2.59 µM
TGI (TK-10 renal): 17.4 µM
GI50 (SK-MEL-5 melanoma): 1.46 µM
TGI (SK-MEL-5 melanoma): 5.78 µM
GI50 (M14 melanoma): 0.699 µM
TGI (M14 melanoma): 13.8 µM
GI50 (NCI-H522 lung): 2.17 µM
TGI (NCI-H522 lung): > 23.3 µM
GI50 (UO-31 renal): 6.5 µM
TGI (UO-31 renal): > 100 µM
GI50 (SF-295 CNS): 1.21 µM
TGI (SF-295 CNS): 4.42 µM
GI50 (CCRF-CEM leukemia): 1.54 µM
TGI (CCRF-CEM leukemia): 6.96 µM
GI50 (SK-MEL-2 melanoma): 5.99 µM
TGI (SK-MEL-2 melanoma): > 100 µM
GI50 (MALME-3M melanoma): 0.795 µM
TGI (MALME-3M melanoma): 8.67 µM
GI50 (T-47D breast): 13.4 µM
TGI (T-47D breast): > 100 µM
GI50 (SNB-75 CNS): 4.36 µM
TGI (SNB-75 CNS): > 100 µM
GI50 (ACHN renal): 1.15 µM
TGI (ACHN renal): 12.1 µM
GI50 (OVCAR-4 ovarian): 22.8 µM
TGI (OVCAR-4 ovarian): > 100 µM
GI50 (SW-620 colon): 3.22 µM
TGI (SW-620 colon): 12.1 µM
GI50 (A549 NSCLC): 0.995 µM
TGI (A549 NSCLC): 22.3 µM
GI50 (NCI-H226 lung): 2.35 µM
TGI (NCI-H226 lung): > 26.2 µM
GI50 (HCT-116 colon): 0.443 µM
TGI (HCT-116 colon): 11.8 µM
GI50 (SNB-19 CNS): 1.8 µM
TGI (SNB-19 CNS): > 100 µM
GI50 (OVCAR-5 ovarian): 6.99 µM
TGI (OVCAR-5 ovarian): > 100 µM
GI50 (COLO 205 colon): 2.05 µM
TGI (COLO 205 colon): 30 µM
GI50 (PC-3 prostate): 1.93 µM
TGI (PC-3 prostate): 13.5 µM
GI50 (HS 578T breast): 1.89 µM
TGI (HS 578T breast): 5.37 µM
GI50 (MDA-MB-435): 0.62 µM
TGI (MDA-MB-435): 1.46 µM
GI50 (HCT-15 colon): 0.429 µM
TGI (HCT-15 colon): 8.05 µM
GI50 (K-562 leukemia): 0.498 µM
GI50 (786-0 renal): 2.73 µM
TGI (786-0 renal): > 42.6 µM
GI50 (KM12 colon): 0.997 µM
TGI (KM12 colon): 12.5 µM
GI50 (CAKI-1 renal): 1.51 µM
TGI (CAKI-1 renal): 10.6 µM
GI50 (HCC-2998 colon): 0.404 µM
TGI (HCC-2998 colon): 2.8 µM
GI50 (NCI-H23 lung): 0.983 µM
TGI (NCI-H23 lung): 22 µM
GI50 (U251 CNS): 1.12 µM
TGI (U251 CNS): 11.5 µM
GI50 (MDA-MB-231 breast): 0.974 µM
TGI (MDA-MB-231 breast): 81.3 µM
GI50 (DU-145 prostate): 2.58 µM
TGI (DU-145 prostate): 17.2 µM
GI50 (SF-539 CNS): 2.46 µM
TGI (SF-539 CNS): 7.42 µM
GI50 (EKVX NSCLC): 5.35 µM
TGI (EKVX NSCLC): 30.4 µM
GI50 (HOP-92 NSCLC): 8 µM
TGI (HOP-92 NSCLC): 63.2 µM
GI50 (SK-OV-3 ovarian): 2.24 µM
TGI (SK-OV-3 ovarian): > 100 µM
